Earlier results as cited in PubChem BioAssay AID1259409 (Chemical Carcinogenesis Research Information System (CCRIS), 2018).

Tested on: rodent chemically induced tumor inhibition, incidence and multiplicity
Test: CCRIS tumor inhibitor studies

Compound: COc1ccc2c(c1)c(CC(=O)O)c(C)n2C(=O)c1ccc(Cl)cc1
- tumour outcome (control, treated, inhibition, significance) (Carcinogen: 1,2-DIMETHYLHYDRAZINE DIHYDROCHLORIDE, 306-37-6, Dose [Inhibitor]: 20 MG/L TAP WATER DAILY FOR 32 WK STARTING SIMULTANEOUSLY WITH CARCINOGEN TREATMENT (STUDY DURATION: 32 WK), Route [Inhibitor]: ORAL, Species: RAT, Strain/Sex: SPRAGUE-DAWLEY/MALE, Target Tissue: Type of Lesion: LARGE INTESTINE: TUMOR, Dose [Carcinogen]: 20 MG/KG BW 1/WK FOR 20 WK, Promoter: NONE USED): 88%, 56%, 36%, p<0.005
- tumour outcome (control, treated, inhibition, significance) (Carcinogen: 1,2-DIMETHYLHYDRAZINE DIHYDROCHLORIDE, 306-37-6, Dose [Inhibitor]: 20 MG/L TAP WATER DAILY FOR 32 WK STARTING SIMULTANEOUSLY WITH CARCINOGEN TREATMENT (STUDY DURATION: 32 WK), Route [Inhibitor]: ORAL, Species: RAT, Strain/Sex: SPRAGUE-DAWLEY/MALE, Target Tissue: Type of Lesion: SMALL INTESTINE: TUMOR, Dose [Carcinogen]: 20 MG/KG BW 1/WK FOR 20 WK, Promoter: NONE USED): 46%, 31%, 33%, not significant
- tumour outcome (control, treated, inhibition, significance) (Carcinogen: 1,2-DIMETHYLHYDRAZINE, 540-73-8, Dose [Inhibitor]: 20 MG/L IN DRINKING WATER DAILY FOR 15 WK STARTING 34 D AFTER CARCINOGEN ADMINISTRATION (STUDY DURATION: 20 WK), Route [Inhibitor]: ORAL, Species: RAT, Strain/Sex: SPRAGUE-DAWLEY/MALE, Target Tissue: Type of Lesion: INTESTINE: TUMOR, Dose [Carcinogen]: 30 MG/KG BW ONCE, Promoter: NONE USED): 9/10 (90%), 2/9 (22%), 76%, p 0.0019
- tumour outcome (control, treated, inhibition, significance) (Carcinogen: 1-HYDROXYANTHRAQUINONE, 129-43-1, Dose [Inhibitor]: 0, 16 PMM IN DRINKING WATER FOR 48 WK (STUDY DURATION: 48 WK), Route [Inhibitor]: ORAL, Species: RAT, Strain/Sex: ACI/MALE, Target Tissue: Type of Lesion: LARGE BOWEL: ADENOCARCINOMA, Dose [Carcinogen]: 1.5% IN DIET FOR 48 WK, Promoter: NONE USED): 7/27 (26%), 0/14 (0%), 100%), p= 0.03
- tumour outcome (control, treated, inhibition, significance) (Carcinogen: 1-HYDROXYANTHRAQUINONE, 129-43-1, Dose [Inhibitor]: 0, 16 PPM IN DRINKING WATER FOR 48 WK (STUDY DURATION: 48 WK), Route [Inhibitor]: ORAL, Species: RAT, Strain/Sex: ACI/MALE, Target Tissue: Type of Lesion: CECUM: ADENOCARCINOMA, Dose [Carcinogen]: 1.5% IN DIET FOR 48 WK, Promoter: NONE USED): 3/27 (11%), 0/14 (0%), 100%, not calculated
- tumour outcome (control, treated, inhibition, significance) (Carcinogen: 1-HYDROXYANTHRAQUINONE, 129-43-1, Dose [Inhibitor]: 0, 16 PPM IN DRINKING WATER FOR 48 WK (STUDY DURATION: 48 WK), Route [Inhibitor]: ORAL, Species: RAT, Strain/Sex: ACI/MALE, Target Tissue: Type of Lesion: CECUM: ADENOMA, Dose [Carcinogen]: 1.5% IN DIET FOR 48 WK, Promoter: NONE USED): 2/27 (7%), 0/14 (0%), 100%, not calculated
- tumour outcome (control, treated, inhibition, significance) (Carcinogen: 1-HYDROXYANTHRAQUINONE, 129-43-1, Dose [Inhibitor]: 0, 16 PPM IN DRINKING WATER FOR 48 WK (STUDY DURATION: 48 WK), Route [Inhibitor]: ORAL, Species: RAT, Strain/Sex: ACI/MALE, Target Tissue: Type of Lesion: COLON: ADENOCARCINOMA, Dose [Carcinogen]: 1.5% IN DIET FOR 48 WK, Promoter: NONE USED): 5/27 (19%), 0/14 (0%), 100%, not calculated
- tumour outcome (control, treated, inhibition, significance) (Carcinogen: 1-HYDROXYANTHRAQUINONE, 129-43-1, Dose [Inhibitor]: 0, 16 PPM IN DRINKING WATER FOR 48 WK (STUDY DURATION: 48 WK), Route [Inhibitor]: ORAL, Species: RAT, Strain/Sex: ACI/MALE, Target Tissue: Type of Lesion: COLON: ADENOMA OR ADENOCARCINOMA, Dose [Carcinogen]: 1.5% IN DIET FOR 48 WK, Promoter: NONE USED): 9/27 (33%), 0/14 (0%), 100%, p<0.01
- tumour outcome (control, treated, inhibition, significance) (Carcinogen: 1-HYDROXYANTHRAQUINONE, 129-43-1, Dose [Inhibitor]: 0, 16 PPM IN DRINKING WATER FOR 48 WK (STUDY DURATION: 48 WK), Route [Inhibitor]: ORAL, Species: RAT, Strain/Sex: ACI/MALE, Target Tissue: Type of Lesion: COLON: ADENOMA, Dose [Carcinogen]: 1.5% IN DIET FOR 48 WK, Promoter: NONE USED): 4/27 (15%), 0/14 (0%), 100%, not calculated
- outcome (Carcinogen: 1-HYDROXYANTHRAQUINONE, 129-43-1, Dose [Inhibitor]: 0, 16 PPM IN DRINKING WATER FOR 48 WK (STUDY DURATION: 48 WK), Route [Inhibitor]: ORAL, Species: RAT, Strain/Sex: ACI/MALE, Target Tissue: Type of Lesion: FORESTOMACH: PAPILLOMA, Dose [Carcinogen]: 1.5% IN DIET FOR 48 WK, Promoter: NONE USED): 14/27 (52%), 2/14 (14%), p= 0.01
- tumour outcome (control, treated, inhibition, significance) (Carcinogen: 1-HYDROXYANTHRAQUINONE, 129-43-1, Dose [Inhibitor]: 0, 16 PPM IN DRINKING WATER FOR 48 WK (STUDY DURATION: 48 WK), Route [Inhibitor]: ORAL, Species: RAT, Strain/Sex: ACI/MALE, Target Tissue: Type of Lesion: FORESTOMACH: TUMOR, Dose [Carcinogen]: 1.5% IN DIET FOR 48 WK, Promoter: NONE USED): 14/27 (52%), 2/14 (14%), 73%, p<0.01
- tumour outcome (control, treated, inhibition, significance) (Carcinogen: 1-HYDROXYANTHRAQUINONE, 129-43-1, Dose [Inhibitor]: 0, 16 PPM IN DRINKING WATER FOR 48 WK (STUDY DURATION: 48 WK), Route [Inhibitor]: ORAL, Species: RAT, Strain/Sex: ACI/MALE, Target Tissue: Type of Lesion: LARGE BOWEL: ADENOMA, Dose [Carcinogen]: 1.5% IN DIET FOR 48 WK, Promoter: NONE USED): 5/27 (19%), 0/14 (0%), 100%, not calculated
- tumour outcome (control, treated, inhibition, significance) (Carcinogen: 1-HYDROXYANTHRAQUINONE, 129-43-1, Dose [Inhibitor]: 0, 16 PPM IN DRINKING WATER FOR 48 WK (STUDY DURATION: 48 WK), Route [Inhibitor]: ORAL, Species: RAT, Strain/Sex: ACI/MALE, Target Tissue: Type of Lesion: LARGE BOWEL: TUMOR, Dose [Carcinogen]: 1.5% IN DIET FOR 48 WK, Promoter: NONE USED): 12/27 (44%), 0/14 (0%), 100%, not calculated
- tumour outcome (control, treated, inhibition, significance) (Carcinogen: 1-HYDROXYANTHRAQUINONE, 129-43-1, Dose [Inhibitor]: 0, 16 PPM IN DRINKING WATER FOR 48 WK (STUDY DURATION: 48 WK), Route [Inhibitor]: ORAL, Species: RAT, Strain/Sex: ACI/MALE, Target Tissue: Type of Lesion: LIVER: NEOPLASTIC NODULE, Dose [Carcinogen]: 1.5% IN DIET FOR 48 WK, Promoter: NONE USED): 1/27 (4%), 0/14 (0%), 100%, not calculated
- tumour outcome (control, treated, inhibition, significance) (Carcinogen: 1-HYDROXYANTHRAQUINONE, 129-43-1, Dose [Inhibitor]: 0, 16 PPM IN DRINKING WATER FOR 48 WK (STUDY DURATION: 48 WK), Route [Inhibitor]: ORAL, Species: RAT, Strain/Sex: ACI/MALE, Target Tissue: Type of Lesion: LIVER: TUMOR, Dose [Carcinogen]: 1.5% IN DIET FOR 48 WK, Promoter: NONE USED): 1/27 (4%), 0/14 (0%), 100%, not calculated
- tumour outcome (control, treated, inhibition, significance) (Carcinogen: 2-ACETYLAMINOFLUORENE, 53-96-3, Dose [Inhibitor]: 0, 10 PPM IN DRINKING WATER FOR 18 WK BEGINNING 1 WK PRIOR TO CARCINOGEN TREATMENT (STUDY DURATION: 36 WK), Route [Inhibitor]: ORAL, Species: RAT, Strain/Sex: ACI/N/MALE, Target Tissue: Type of Lesion: LIVER: TUMOR, Dose [Carcinogen]: 200 PPM IN DIET FOR 16 WK, Promoter: NONE USED): 10/10 (100%), 1/10 (10%), 90%, p=0.00006
- outcome (Carcinogen: 4-HYDROXYBUTYL(BUTYL)NITROSAMINE [3817-11-6], Dose [Inhibitor]: 20 MG/KG IN DIET 1 WK AFTER CARCINOGEN (STUDY DURATION: 32 WK), Route [Inhibitor]: DIET, Species: MOUSE, Strain/Sex: B6D2F1/MALE, Target Tissue: Type of Lesion: BLADDER: CARCINOMA, Dose [Carcinogen]: 7.5 MG/WK FOR 12 WK): 32, 6, 81%
- outcome (Carcinogen: 4-HYDROXYBUTYL(BUTYL)NITROSAMINE [3817-11-6], Dose [Inhibitor]: 20 MG/KG IN DIET 1 WK AFTER LAST CARCINOGEN DOSE (STUDY DURATION: 61 WK), Route [Inhibitor]: DIET, Species: MOUSE, Strain/Sex: B6D2F1/MALE, Target Tissue: Type of Lesion: BLADDER: CARCINOMA, Dose [Carcinogen]: 7.5 MG/WK FOR 12 WK): 66, 26, 61%
- outcome (Carcinogen: 4-HYDROXYBUTYL(BUTYL)NITROSAMINE [3817-11-6], Dose [Inhibitor]: 20 MG/KG IN DIET 1 WK AFTER LAST CARCINOGEN DOSE FOR 12 WK (STUDY DURATION: 42 WK), Route [Inhibitor]: DIET, Species: MOUSE, Strain/Sex: B6D2F1/MALE, Target Tissue: Type of Lesion: BLADDER: CARCINOMA, Dose [Carcinogen]: 7.5 MG/WK FOR 12 WK): 31, 16, 48%
